Legend:
Carbonic anhydrase 2 = Carbonic anhydrase 2 (Homo sapiens, UniProt P00918); assay: Inhibition of human carbonic anhydrase 2 after 15 mins by stopped flow CO2 hydration assay
Carbonic anhydrase 1 = Carbonic anhydrase 1 (Homo sapiens, UniProt P00915); assay: Inhibition of human carbonic anhydrase 1 after 15 mins by stopped flow CO2 hydration assay
Sequence of Carbonic anhydrase 1 (P00915 whole entry): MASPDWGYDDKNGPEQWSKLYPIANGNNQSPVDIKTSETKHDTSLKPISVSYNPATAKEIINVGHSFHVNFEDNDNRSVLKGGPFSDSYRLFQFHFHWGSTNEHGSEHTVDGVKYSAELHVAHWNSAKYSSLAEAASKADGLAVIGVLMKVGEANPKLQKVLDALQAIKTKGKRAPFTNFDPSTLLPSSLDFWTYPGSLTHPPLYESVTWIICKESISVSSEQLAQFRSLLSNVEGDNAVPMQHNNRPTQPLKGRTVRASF

O=S(=O)(O)ONOS(=O)(=O)O [SODIUM IMINODISULFATE]
Ki (Carbonic anhydrase 2): 760 nM | Ki (Carbonic anhydrase 1): 310 nM
